Measurements published in ChEMBL document CHEMBL5226289, “Discovery of natural anti-inflammatory alkaloids: Potential leads for the drug discovery for the treatment of inflammation” (Eur J Med Chem, 2021).
Residues, ends and D or L forms follow the SMILES beside them. *: point of attachment. Cbz = O=C(OCc1ccccc1)*

Key:
RAW264.7 [1] = experiment: Inhibition of NO production in LPS-induced mouse RAW264.7 cells; assay type: functional, cell-based
[2] = Antiinflammatory activity in rat polymorphonuclear leucocyte cells assessed as inhibition of PAF-induced beta-glucuronidase release at 10 uM relative to control; assay type: functional
RAW264.7 [3] = experiment: Inhibition of NO production in LPS-stimulated mouse RAW264.7 cells incubated for 24 hrs by Griess reagent-based assay; assay type: functional, cell-based; details: RAW264.7, 24 h
HEp-2 = experiment: Cytotoxicity against human HEp-2 cells assessed as inhibition of cell growth incubated for 48 hrs by MTT assay; assay type: functional, cell-based; details: HEp-2, 48 h, pooled result: one value given for 7 cell lines, strains, targets or settings
[4] = Inhibition of NO production in LPS-stimulated mouse BV-2 cells preincubated with compound for 1 hrs followed by LPS stimulation and measured after 24 hrs by Griess reagent-based assay; assay type: functional, cell-based
[5] = molecular target: Prostaglandin G/H synthase 1 (Homo sapiens, UniProt P23219); experiment: Inhibition of COX-1 (unknown origin) using arachidonic acid as substrate at 100 uM preincubated for 5 mins followed by substrate addition and measured after 15 mins relative to control; details: time 20.0 min
Chain of Prostaglandin G/H synthase 1 (P23219 whole entry): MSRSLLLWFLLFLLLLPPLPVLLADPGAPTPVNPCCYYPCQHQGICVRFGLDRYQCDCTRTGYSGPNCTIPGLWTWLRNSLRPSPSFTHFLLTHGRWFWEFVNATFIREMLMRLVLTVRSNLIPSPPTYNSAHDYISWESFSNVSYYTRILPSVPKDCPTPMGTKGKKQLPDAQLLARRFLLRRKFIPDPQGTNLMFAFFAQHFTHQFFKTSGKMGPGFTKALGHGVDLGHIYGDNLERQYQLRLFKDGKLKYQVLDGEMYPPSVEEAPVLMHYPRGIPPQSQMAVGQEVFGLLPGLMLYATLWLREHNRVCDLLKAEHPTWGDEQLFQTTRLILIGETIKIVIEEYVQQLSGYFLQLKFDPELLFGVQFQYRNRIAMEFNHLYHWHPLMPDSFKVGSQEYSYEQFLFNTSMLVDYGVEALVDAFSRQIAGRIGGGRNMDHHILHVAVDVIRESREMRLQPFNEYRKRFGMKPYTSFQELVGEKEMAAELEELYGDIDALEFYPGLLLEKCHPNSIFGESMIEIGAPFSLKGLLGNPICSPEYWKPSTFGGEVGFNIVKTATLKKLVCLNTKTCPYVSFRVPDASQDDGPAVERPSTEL

RAW264.7 [6] = experiment: Antiinflammatory activity against LPS-stimulated mouse RAW264.7 cells assessed as inhibition of IL-6 production incubated for 24 hrs by ELISA analysis relative to control; assay type: functional
RAW264.7 [7] = experiment: Antiinflammatory activity against LPS-stimulated mouse RAW264.7 cells assessed as inhibition of TNF-alpha production incubated for 24 hrs by ELISA analysis relative to control; assay type: functional
RAW264.7 [8] = experiment: Antiinflammatory activity against LPS-stimulated mouse RAW264.7 cells assessed as inhibition of IL-1beta production at 20 uM preincubated for 27 hrs followed by LPS stimulation and measured after 12 hrs by ELISA analysis relative to control; assay type: functional; details: time 39 hrs
RAW264.7 [9] = experiment: Antiinflammatory activity against LPS-stimulated mouse RAW264.7 cells assessed as inhibition of TNFalpha production at 20 uM preincubated for 27 hrs followed by LPS stimulation and measured after 12 hrs by ELISA analysis relative to control; assay type: functional; details: time 39 hrs
Mus musculus = experiment: Antiinflammatory activity in carrageenan-induced peritoneal Swiss albino mouse model assessed as decrease in number of leukocyte cells at 100 umol/kg, po pre-treated for 30 mins followed by carrageenan induction and measured after 4 hrs relative to control; assay type: functional; parameters: scale not given: the % may be the effect or the level left; details: dose 100 µmol/kg, time 4.5 hrs
[10] = Inhibition of NO production in LPS-stimulated mouse BV-2 cells incubated for 24 hrs by Griess reagent-based assay; assay type: functional, cell-based; details: BV-2, 24 h
RAW264.7 [11] = experiment: Antiinflammatory activity against mouse RAW264.7 cells assessed as inhibition of cell growth; assay type: functional, cell-based
RAW264.7 [12] = experiment: Antiinflammatory activity in mouse RAW264.7 cells assessed as inhibition of LPS-stimulated iNOS activity preincubated with compound for 24 hrs followed by LPS stimulation for 2 hrs and measured 2 hrs after NADPH addition by fluorescence based assay; assay type: functional, cell-based
[13] = Inhibition of TNF-alpha production in LPS-stimulated human PBMC cells; assay type: functional, cell-based

C[C@@H]1C[C@@H]2CC[C@@H]3[C@@H](C(=O)C[C@@H]4N5CCCC5C[C@H](C)[C@@]4(O)c4ccccc4)[C@](C)(O)C[C@H](N23)[C@@]1(O)c1ccccc1 (some centres undefined)
IC50 (RAW264.7 [1]): 14.3 µM

CN1Cc2cc3c(cc2Cc2ccc4c(c2C1)OCO4)OCO3
inhibition at 10 µM [2]: 39.6%

C[C@@H]1C(=O)O[C@H]2C(O)C34[C@H]5C[C@@H](C(C)(C)C)[C@]36[C@@H](OC(=O)[C@@H]6O)O[C@@]4(C(=O)O5)[C@@]12O (some centres undefined)
inhibition at 10 µM [2]: 51.3%

C[C@@H](O)C1=CC2=NC=CC3c4ccccc4N(C1=O)C23 (some centres undefined)
IC50 (RAW264.7 [3]): 15.1 µM

COc1ccc2c(cc3c4c(cc5c(c42)OCO5)CCN3C)c1O
IC50 (HEp-2): 28.9 µM

COC1=CC(=O)c2cc3c4c(cc(O)c(OC)c4c2C1=O)CCN3C
IC50 (HEp-2): 8.7 µM

COc1c(CC=C(C)C)c(C=O)cc2c1[nH]c1cc(O)ccc12
IC50 [4]: 10.9 µM

COc1cc2c(cc1OC)[C@H]1CCN(C2)C(=O)[C@@H](O)[C@H](O[C@@H]2O[C@H](C)[C@@H](OC)[C@@H]3OCOCO[C@@H]23)CC1=O
inhibition [5]: > 64%

O=C1C=CC[C@@H]2[C@H]3CCCN4CCC[C@@H](CN12)[C@@H]34 [SOPHOCARPINE]
inhibition (INH) (RAW264.7 [6]): >40% | inhibition (INH) (RAW264.7 [7]): >40%

CN1CCc2cc3c(cc2[C@@H]1[C@H]1OC(O)c2c1ccc1c2OCO1)OCO3 (some centres undefined)
inhibition at 10 µM [2]: 36.5%

CC1(C)C=Cc2c(ccc3c4c(n(S(C)(=O)=O)c23)C(C)(C)[C@@H]2C[C@]35CCCN3C(=O)[C@]2(C4)NC5=O)O1
inhibition at 20 µM (RAW264.7 [8]): > 32.6% | inhibition at 20 µM (RAW264.7 [9]): > 32.6%

C[C@@H]1C[C@@H]2CCCN2[C@H](CC(=O)C[C@H]2N3CCC[C@H]3C[C@@H](C)[C@]2(O)c2ccccc2)[C@H]1c1ccccc1
IC50 (RAW264.7 [1]): 16.1 µM

C/C=C1\CO[C@H](OC)c2c1cc1n(c2=O)CCc2c-1[nH]c1ccccc21
IC50 (RAW264.7 [3]): 3.6 µM

C/C=C(/C)C(=O)O[C@@H]1CC[N+]2([O-])CC=C(COC(=O)[C@](O)(C(C)C)[C@H](C)OC)[C@H]12 (some centres undefined)
IC50 (RAW264.7 [3]): 105 µM

CO[C@H]1[C@@H]2C[C@]34CCCCCCCCCCn5ccc2c5C(=O)[C@@H]3[C@H]2C(O)C/C=C\C/C=C\CCC[N@@+]21C4 (some centres undefined)
IC50 [4]: 1.1 µM

COc1cc2c(cc1OC)[C@H]1CCN(C2)C(=O)[C@@H](O)[C@H](O[C@@H]2O[C@H](C)[C@@H](OC)[C@H](OC)[C@H]2OC)CC1=O
inhibition [5]: > 64%

O=C(O)c1cc(C(=O)c2ccco2)n2c1CCC2
IC50 (RAW264.7 [1]): 22.8 µM

O=C1C=CC2=NC=CC3c4cc(O)ccc4N1C23 (centres undefined)
IC50 (RAW264.7 [3]): 12 µM

COc1cc2c(cc1O)CN1CC[C@H]2C(=O)C[C@@H](O[C@@H]2O[C@H](CO)[C@@H](OC)[C@H](OC)[C@H]2OC)[C@H](O)C1=O
inhibition [5]: > 64%

COc1ccc2c(c1)c(CC(=O)O)c(C)n2C(=O)c1ccc(Cl)cc1 [INDOMETHACIN]
Activity (Mus musculus): 72.1%

CC(=O)O[C@@H]1CC2C3CCCN4CCCC1C34C[C@H](C)[C@H]2O (some centres undefined)
IC50 [10]: 4.2 µM

CN1CCc2cc3c(cc2[C@@H]1[C@H]1OC(=O)c2c1ccc1c2OCO1)OCO3
inhibition at 10 µM [2]: 34.8%

COC1=C[C@@]23CCN(C)[C@@H](Cc4c(CN5CCc6cc(OC)c(OC)c7c6[C@H]5CC75C=CC(=O)C=C5)cc(OC)c(O)c42)C3=CC1=O
IC50 (RAW264.7 [1]): 1.39 µM

CO[C@H]1[C@@H]2OCOCO[C@H]2[C@H](O[C@@H]2CC(=O)[C@@H]3CCN(Cc4cc5c(cc43)OCO5)C(=O)[C@H]2O)O[C@@H]1C
inhibition [5]: > 64%

Cc1ccc(-c2cc(C(F)(F)F)nn2-c2ccc(S(N)(=O)=O)cc2)cc1 [CELECOXIB]
IC50 (RAW264.7 [11]): 34.3 µM

CC1(C)C=Cc2c(ccc3c4c([nH]c23)C(C)(C)[C@@H]2C[C@]35CCCN3C(=O)[C@]2(C4)NC5=O)O1
inhibition at 20 µM (RAW264.7 [8]): > 32.6% | inhibition at 20 µM (RAW264.7 [9]): > 32.6%

CC(C)C[C@@H](C=O)NC(=O)[C@H](CC(C)C)NC(=O)[C@H](CC(C)C)NC(=O)OCc1ccccc1 [MG-132] (Cbz-Leu-Leu-Leu-aldehyde)
IC50 (RAW264.7 [12]): 0.2 µM

O=C1C=CC2=NC=CC3c4ccc(O)cc4N1C23 (centres undefined)
IC50 (RAW264.7 [3]): 7.7 µM

CN1CCc2cc3c(c4c2[C@H]1Cc1c(O)cccc1-4)OCO3
IC50 (RAW264.7 [1]): 1.39 µM

CO[C@H]1[C@@H]2C[C@]34CCCCCCCCCCn5ccc2c5C(=O)[C@@H]3[C@H]2[C@H](O)CCCCCCCC[N@@+]21C4
IC50 [4]: 2.1 µM

COc1ccc2c(c1)[nH]c1cc(OC)c(C(=O)O)cc12 [CLAUSINE K]
IC50 [4]: 4.6 µM

N=C(N)NN [PIMAGEDINE]
IC50 (RAW264.7 [3]): 1.8 µM

O=C1C=CC2=NC=CC3c4ccccc4N1C23 (centres undefined)
IC50 (RAW264.7 [3]): 9.1 µM

C[C@@H]1CC2CC(=O)C3CCCN4CCCC2C34C1 (some centres undefined)
IC50 [10]: 4.2 µM

C=Cc1cncc2c1CC1c3[nH]c4ccccc4c3CCN1C2=O (centres undefined)
IC50 (RAW264.7 [3]): 1.6 µM

C=CC(C)(C)[C@@]1(C[C@@H]2NC(=O)[C@@H]3CCCN3C2=O)C(=O)Nc2c1ccc(O)c2CC=C(C)C
inhibition at 20 µM (RAW264.7 [8]): > 32.6% | inhibition at 20 µM (RAW264.7 [9]): > 32.6%

C[C@H]1CC23C4CCCN2CCCC3[C@H](O)CC4[C@H]1O (some centres undefined)
IC50 [10]: 4.2 µM

C/C=C1/CN2CC[C@@H]1C(=O)c1[nH]c3ccc(OC)cc3c1C2
IC50 (RAW264.7 [3]): 2.4 µM

C[C@@H]1CC2CC(=O)C3CCCN4CC[C@@H](O)[C@]2(O)C34C1 (some centres undefined)
IC50 [10]: 4.2 µM

COC1O[C@H]([C@H]2c3cc4c(cc3CCN2C)OCO4)c2ccc3c(c21)OCO3 (some centres undefined)
inhibition at 10 µM [2]: 37.7%

O=C1C(O)=CC[C@@H]2[C@H]3CCCN4CCC[C@@H](CN12)[C@@H]34
inhibition (INH) (RAW264.7 [6]): >40% | inhibition (INH) (RAW264.7 [7]): >40%

O=Cc1cc2c(cc1O)[nH]c1cc(O)ccc12 [CLAUSINE O]
IC50 [4]: 6.4 µM

COC1=CC(=O)c2cc3c4c(cc(OC)c(OC)c4c2C1=O)CCN3C
IC50 (HEp-2): 10.5 µM

CC(=O)O[C@@H]1C2C[C@@H](OC(C)=O)C3CCCN4CCC[C@@]2(O)C34C[C@@H]1C (some centres undefined)
IC50 [10]: 4.2 µM

Cc1[nH]c(C=O)c2c1C(=O)N1CCC3(C(=O)Nc4ccccc43)C1C2 (centres undefined)
IC50 (RAW264.7 [3]): 0.8 µM

COc1c2c(cc3c1OCO3)[C@H]1CCN(C2)C(=O)[C@@H](O)[C@H](O[C@@H]2O[C@H](CO)[C@@H](OC)[C@H](OC)[C@H]2OC)CC1=O
inhibition [5]: > 64%

O=c1cccc2n1C[C@@H]1C[C@H]2CN2CCCC[C@@H]12
inhibition (INH) (RAW264.7 [6]): >40% | inhibition (INH) (RAW264.7 [7]): >40%

CO[C@@H]1C=C[C@@]23c4cc5c(cc4C(=O)N(CCc4ccccc4)[C@@H]2C(=O)N(C)[C@H]3C1)OCO5
IC50 (RAW264.7 [3]): 1.39 µM

CC[C@@H](C)[C@@H](C)C(=O)OC/C=C(\C)C(=O)OC[C@@H]1CCN2CCC[C@H]12
IC50 (RAW264.7 [3]): 38.6 µM

C[C@]12CCC(=O)C=C1CC[C@@H]1[C@@H]2[C@@H](O)C[C@@]2(C)[C@H]1CC[C@]2(O)C(=O)CO [HYDROCORTISONE]
IC50 (RAW264.7 [3]): 3.4 µM

C[C@@H]1C[C@H]2[C@@H]3CCC4=CC(=O)C=C[C@]4(C)[C@@]3(F)[C@@H](O)C[C@]2(C)[C@@]1(O)C(=O)CO [DEXAMETHASONE]
IC50 (RAW264.7 [1]): 47 µM

O=C1c2ccccc2-c2c3c(cc4ccnc1c24)OCO3 [LIRIODENINE]
IC50 (RAW264.7 [3]): 1.39 µM

Cc1cncc2c1CC1c3[nH]c4ccccc4c3CCN1C2=O (centres undefined)
IC50 (RAW264.7 [3]): 1.3 µM

COc1cc(Cc2ccc3c(c2)[nH]c2c4c(c(C)cc23)OC(C)(CCC=C(C)C)C=C4)cc2c1[nH]c1ccccc12 (centres undefined)
IC50 [13]: 10 µM

CC1(C)C=Cc2c(ccc3c2NC(=O)[C@@]32C[C@]34NC(=O)[C@]5(CCCN5C3=O)C[C@H]4C2(C)C)O1
inhibition at 20 µM (RAW264.7 [8]): > 32.6% | inhibition at 20 µM (RAW264.7 [9]): > 32.6%

CN1CCc2cc3c(c4c2[C@H]1Cc1ccccc1-4)OCO3
IC50 (RAW264.7 [3]): 1.39 µM

O=C(OC[C@@H]1CCN2CCC[C@H]12)c1ccccc1
IC50 (RAW264.7 [3]): 25.5 µM

O=c1cccc2n1C[C@@H]1CCCN3CCC[C@@H]2[C@H]13
inhibition (INH) (RAW264.7 [6]): >40% | inhibition (INH) (RAW264.7 [7]): >40%

C[C@@H]1CC2CC(=O)C3CCCN4CCC[C@@]2(O)C34C1 (some centres undefined)
IC50 [10]: 4.2 µM

CC[C@H](C)CN1C(=O)c2cc3c(cc2[C@@]24C=C[C@@H](OC)C[C@@H]2N(C)C(=O)[C@@H]14)OCO3
IC50 (RAW264.7 [3]): 1.39 µM

O=c1c(CO)ccc2n1CCc1c-2[nH]c2ccccc12
IC50 (RAW264.7 [3]): 12 µM
